Data published in patent US20100119599A1 (ARCHER PHARMACEUTICALS, INC., priority 2006, published 2010).
Like-named read-outs stand apart in the source and are kept apart here.

Legend:
Aβ1-40 = assay: Measurement of Aβ1-40 in culture medium of 7W WT APP751 CHO cells by ELISA; assay type: cell-based, Chinese hamster; conditions: for Aβ1-40 (% of control): CHO cells that overexpress APP751, zero = below the detection limit of the assay; for activity at 5 µM: Cricetulus griseus, 5 μM test compound, CHO cells stably transfected with human APP751, culture medium, ELISA, control DMSO;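 for all read-outs here: 5 µM test compound but RI-coded compounds at 10 µM for 24 hours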
Aβ1-42 = assay: Measurement of Aβ1-42 in culture medium of 7W WT APP751 CHO cells by ELISA; assay type: cell-based, Chinese hamster; conditions: for Aβ1-42 (% of control): CHO cells that overexpress APP751, zero = below the detection limit of the assay; for activity at 5 µM: Cricetulus griseus, 5 μM test compound, CHO cells stably transfected with human APP751, culture medium, ELISA, control DMSO;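 for Aβ1-42 (% of control): 5 µM test compound but RI-coded compounds at 10 µM for 24 hours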
[1] = Table 1, 0 = no detectable amount
[2] = Table 1, 0 = no detectable amount, read-out: Aβ1-42 (% of control)

SMILES	Aβ1-40 (% of control) (Aβ1-40)	Aβ1-42 (% of control) (Aβ1-42)	activity at 5 µM (Aβ1-40; [1]) [%]	activity at 5 µM (Aβ1-42; [2]) [%]	also measured
CCOC(=O)C1=C(C)NC(C)=C(C(=O)OCC)C1c1cccc(NC(=O)C(F)(F)F)c1 [ST003836, ethyl 5-(ethoxycarbonyl)-2,6-dimethyl-4-[3-(2,2,2-trifluoroacetylamino)phenyl]-1,4-dihydropyridine-3-carboxylate]	45.34 % of control	83.98 % of control	–	–	–
COc1ccc(C2C(C(=O)OC3CCCC3)=C(C)NC3=C2C(=O)CC(c2cccs2)C3)c(OC)c1OC (centres unmarked) [ST051571, cyclopentyl 2-methyl-5-oxo-7-(2-thienyl)-4-(2,3,4-trimethoxyphenyl)-1,4,6,7,8-pentahydroquinoline-3-carboxylate]	–	–	40.4	62.1	–
CC1=C(C(=O)OCCc2ccccc2)C(c2ccccc2F)C2=C(CC(C)(C)CC2=O)N1 (centres unmarked) [ST052225, 2-phenylethyl 4-(2-fluorophenyl)-2,7,7-trimethyl-5-oxo-1,4,6,7,8-pentahydroquinoline-3-carboxylate]	–	–	37.7	29.7	–
CCn1c2ccccc2c2cc(C3C(C(=O)OCC4CCCO4)=C(C)NC4=C3C(=O)CCC4)ccc21 (centres unmarked) [ST052207, oxolan-2-ylmethyl 4-(9-ethylcarbazol-3-yl)-2-methyl-5-oxo-1,4,6,7,8-pentahydroquinoline-3-carboxylate]	–	–	52.3	59.6	–
N#CC(C#N)=CC=C1C=CN(C2CCCCC2)C=C1 [ST019328]	–	–	–	–	activity at 5 µM (Aβ1-40; Table 3): 59%; activity at 5 µM (Aβ1-42; Table 3, read-out: Aβ-42 (% of control)): 92.2%
CCCCOC(=O)C1=C(C)NC2=C(C(=O)CCC2)C1c1ccc(Br)cc1 (centres unmarked) [ST017167, butyl 4-(4-bromophenyl)-2-methyl-5-oxo-1,4,6,7,8-pentahydroquinoline-3-carboxylate]	–	–	79	50.5	–
CSC1=C(C#N)C(c2ccccc2)C(C(=O)Nc2ccc(Cl)cc2)=C(C)N1 (centres unmarked) [RI_5]	81.4 % of control	82.2 % of control	–	–	–
CC1=C(C(=O)Nc2ccc(Cl)cc2)C(c2ccccc2)C(C#N)=C(SCC(=O)Nc2ccc(C)cc2)N1 (centres unmarked) [RI_41]	36.4 % of control	30.7 % of control	–	–	–
CCc1cccc(NC(=O)CSC2=C(C#N)C(c3ccc(-c4cccs4)s3)C(C(=O)Nc3ccccc3)=C(C)N2)c1 (centres unmarked) [RI_90]	63.9 % of control	42.9 % of control	–	–	–
CC1=C(C(=O)Nc2ccccc2)C(c2cccs2)C(C#N)=C(SCC(=O)NC2CCC2)N1 (centres unmarked) [RI_24]	80.8 % of control	44.1 % of control	–	–	–
CC1=C(C(=O)OC(C)C)C(c2cccnc2)C2=C(CC(c3ccc(Cl)cc3)CC2=O)N1 (centres unmarked) [ST017331, methylethyl 7-(4-chlorophenyl)-2-methyl-5-oxo-4-(3-pyridyl)-1,4,6,7,8-pentahydroquinoline-3-carboxylate]	–	–	1.11	0	–
COc1ccc(C2C(C(=O)OC3CCCC3)=C(C)NC3=C2C(=O)CCC3)cc1Br (centres unmarked) [ST013137, cyclopentyl 4-(3-bromo-4-methoxyphenyl)-2-methyl-5-oxo-1,4,6,7,8-pentahydroquinoline-3-carboxylate]	–	–	18.7	30	–
CCOC(=O)C1=C(C)NC2=C(C(=O)CCC2)C1c1ccc(O)c(OCC)c1 (centres unmarked) [ST013158, ethyl 4-(3-ethoxy-4-hydroxyphenyl)-2-methyl-5-oxo-1,4,6,7,8-pentahydroquinoline-3-carboxylate]	–	–	75	67.8	–
COC(=O)C1=C(C)NC2=C(C(=O)CCC2)C1c1cc(F)ccc1F (centres unmarked) [ST052368, methyl 4-(2,5-difluorophenyl)-2-methyl-5-oxo-1,4,6,7,8-pentahydroquinoline-3-carboxylate]	–	–	66.3	74.2	–
COc1ccc(C2CC(=O)C3=C(C2)NC(C)=C(C(=O)OCc2ccccc2)C3c2ccc3c(c2)OCO3)cc1 (centres unmarked) [ST017133, phenylmethyl 4-(2H-benzo[3,4-d]1,3-dioxolen-5-yl)-7-(4-methoxyphenyl)-2-methyl-5-oxo-1,4,6,7,8-pentahydroquinoline-3-carboxylate]	–	–	39.2	79.2	–
COCCOC(=O)C1=C(C)NC2=C(C(=O)CCC2)C1c1cccc(OC)c1 (centres unmarked) [ST015219, 2-methoxyethyl 4-(3-methoxyphenyl)-2-methyl-5-oxo-1,4,6,7,8-pentahydroquinoline-3-carboxylate]	–	–	83.7	45.8	–
CC1=C(C(=O)OCCOc2ccccc2)C(c2ccc3c(c2)OCO3)C2=C(CC(C)(C)CC2=O)N1 (centres unmarked) [ST015103, 2-phenoxyethyl 4-(2H-benzo[3,4-d]1,3-dioxolan-5-yl)-2,7,7-trimethyl-5-oxo-1,4,6,7,8-pentahydroquinoline-3-carboxylate]	–	–	35.3	73.5	–
CCCOC(=O)C1=C(C)NC2=C(C(=O)CCC2)C1c1cc(Br)ccc1OC (centres unmarked) [ST052364, propyl 4-(5-bromo-2-methoxyphenyl)-2-methyl-5-oxo-1,4,6,7,8-pentahydroquinoline-3-carboxylate]	–	–	27	13.5	–
COc1cccc(/C=c2/sc3n(c2=O)C(N)=C(C#N)C(c2cccc(OC)c2)C=3C#N)c1 (centres unmarked) [ST215713, 5-amino-7-(3-methoxyphenyl)-2-[(3-methoxyphenyl)methylene]-3-oxo-4,7-dihydro-1,3-thiazolidino[3,2-a]pyridine-6,8-dicarbonitrile]	69.2 % of control	80.48 % of control	–	–	–
COc1ccc(COC(=O)C2=C(C)NC3=C(C(=O)CCC3)C2c2ccccc2C(F)(F)F)cc1 (centres unmarked) [ST052271, (4-methoxyphenyl)methyl 2-methyl-5-oxo-4-[2-(trifluoromethyl)phenyl]-1,4,6,7,8-pentahydroquinoline-3-carboxylate]	–	–	25.8	23.9	–
COC(=O)C1=C(C)NC2=C(C(=O)CC(c3ccccc3)C2)C1c1cc(OC)ccc1OC (centres unmarked) [ST013117, methyl 4-(2,5-dimethoxyphenyl)-2-methyl-5-oxo-7-phenyl-1,4,6,7,8-pentahydroquinoline-3-carboxylate]	–	–	22.4	46.1	–
CC(=O)C1=C(C)NC(S)=C(C#N)C1c1ccccc1[N+](=O)[O-] (centres unmarked) [ST011628, 5-acetyl-6-methyl-4-(2-nitrophenyl)-2-sulfanyl-1,4-dihydropyridine-3-carbonitrile]	74.07 % of control	76.9 % of control	–	–	–
CCCCOC(=O)C1=C(C)NC2=C(C(=O)CC(C)(C)C2)C1c1cccc(Cl)c1Cl (centres unmarked) [ST013239, butyl 4-(2,3-dichlorophenyl)-2,7,7-trimethyl-5-oxo-1,4,6,7,8-pentahydroquinoline-3-carboxylate]	–	–	0	59.5	–
CCCCNC(=O)CSC1=C(C#N)C(c2cccs2)C(C(=O)Nc2ccccc2)=C(C)N1 (centres unmarked) [RI_23]	49.3 % of control	35.9 % of control	–	–	–
CC1=C(C(=O)OCCc2ccccc2)C(c2cccc(Cl)c2)C2=C(CC(C)(C)CC2=O)N1 (centres unmarked) [ST015084, 2-phenylethyl 4-(3-chlorophenyl)-2,7,7-trimethyl-5-oxo-1,4,6,7,8-pentahydroquinoline-3-carboxylate]	–	–	59.5	80.2	–
